Data taken from patent publication US6277867A, “Pesticide compounds, compositions and process for the preparation thereof” (priority 1995, dated 2001).

Assays:
[1] = system: resistant house fly, INSEL strain; assay: Synergistic activity on resistant house fly, INSEL strain; format: in vivo, Musca domestica; settings: active ingredient alone
Description: (§1) Investigation of Synergistic Activity on Resistant House Fly (Musca domestica) Populations
(§2) Investigation was carried out as described in biological Example 1. LD50 values and synergist ratios were determined as given in Example 2.

[2] = system: resistant house fly, IX strain; assay: Synergistic activity on resistant house fly, IX strain; format: in vivo, Musca domestica; settings: active ingredient alone
Description: as §1, §2

[3] = system: pea aphid (Acyrthosiphon pisun); assay: Synergist activity against pea aphid, field trial; format: in vivo; settings: two days after treatment
Description: Synergist Activity Against Pea Aphid (Acyrthosiphon pisun)
Synergist activity of compound No. 599 was tested against pea aphid (Acyrthosiphon pisun) in field trials on small plots (10 m^2). 300 l/ha spray volume was applied using motoric sprayer (Maruyama). Efficacy was expressed by the average number of aphids/leaf before, and two days after the treatment, respectively. (Henderson and Tilton: J. Econ. Entomol., 48:157, 1955).

[4] = system: house fly (Musca domestica); settings: in vivo, topical_or_ocular, 1440 min
Description: Investigation of Synergistic Activity on House Fly (Musca domestica) Following Topical Application
In two parallel experiments 10 female. 2-4 day old house flies were treated on the vental side of their thorax with 0.2 μl of the test solution, with the help of Hamilton MicroLab P microdispenser. Beside fixed synergist dose of 1000 ng/fly the animals were treated with carbofuran at a dose of 20 ng/fly. For solvent cellosolve was used. Selection and counting of the flies were performed under the action of CO2. After treatment the flies were kept in plastic cups covered with tulle. Mortality after 24 hours was expressed in %.

[5] = system: cotton bollworm (Helicoverpa armigera); assay: Synergistic activity on cotton bollworm following topical application; settings: in vivo
Description: Investigation of Synergistic Activity on Cotton Bollworm (Helicoverpa armigera) Following Topical Application
Treatment was performed similarity as described in Example 1. but L2 stadium grubs of cotton bollworms (Helicoverpa armigera) were treated as test animals. From the 24 hour dose--mortality data the LD50 (ng/grub) values were determined using probit analysis. None of the synergists acted at the applied 1000 ng/grub dose. Synergist ratio was calculated as the quotient of the LD50 values of carbofuran administered alone, and with the synergist. The experiments were performed in 2-4 replica.

[6] = system: house fly (Musca domestica); assay: Synergist spectrum on house fly, topical; format: in vivo
Description: (§3) Investigation of Synergist Spectrum on House Fly (Musca domestica) and Cotton Bollworm (Helicoverpa armigera) Following Topical Administration
(§4) Synerzistic activities of materials No. 279 and 599 of the present invention for various active ingredients were determined on house fly (Musca domestica) and cotton bollworm (Helicoverpa armigera) using methods of treatments as described in biological Examples 1 and 2. For the active ingredients ISO common names are given (see: Pesticide Manual 1994).

[7] = system: cotton bollworm (Helicoverpa armigera); assay: Synergist spectrum on cotton bollworm, topical; format: in vivo
Description: as §3, §4

[8] = system: house fly (Musca domestica); assay: Effect of the active ingredient:synergist ratio on the synergistic activity (flies)
Description: Effect of the Active Ingredient:Synergist Ratio on the Synergistic Activity
Treatment was performed as described in Example 1. using Hamilton MicroLab P microdispenser. In two parallel experiments 10 female -3 day old flies were treated on the ventral side of their thorax with 0.2 μl test solution. Beside 1000-400-200-80 ng/fly fixed doses of the synergist they were treated with constant 20 ng/fly CARBOFURAN®. Selection and counting of the flies were performed under the action of CO2. After treatment the flies were kept in plastic cups covered with tulle. After 24 hours mortality % was recorded. Depending on the results the experiments were performed in 2-4 replica.

[9] = system: two-spotted spider mite (Tetranychus urticae); assay: Synergism of acaricidal effect on two-spotted spider mite (leaf-disc dip); format: in vivo; settings: 48 h
Description: Synergism of Acaricidal Effect Investigated on Two-spotted Spider Mite (Tetranychus urticae)
(§5) From the first pair of leaves of a 1 week old bean plant leaf-discs of […] diameter were cut which were treated by dipping them (5 min) into the test solution consisting of the active ingredient and the synergist in definite concentrations. For the preparation of the stock solutions of required concentration, 10% acetone as co-solvent and 0.1% Tween-80 as detergent were applied. The dried leaf-discs were placed on wet surface and they were infected with […]-up female mites per leaf. After 48 hours the mortality was recorded using microscope and a brush. The experiment was performed in 4 replica.

[10] = system: two-spotted spider mite (Tetranychus urticae); assay: Synergist activity of compound 599 against two-spotted spider mite; format: in vivo; settings: 24 h
Description: as §5, with “After 48 hours the mortality was recorded using microscope and a brush.” left out
Synergist activity of compound 599 with various specific acaricides was investigated against two-spotted spider mite (Tetranychus urticae), by the method described in Example 8.

CNC(=O)ON=C(C)SC [METHOMYL, reference compound]
LD50 [1]: 475 ng/fly | LD50 [2]: 851 ng/fly

CNC(=O)O/N=C/C(C)(C)SC [ALDICARB, reference compound]
LD50 [1]: 695 ng/fly | LD50 [2]: 2104 ng/fly

N#Cc1nn(-c2c(Cl)cc(C(F)(F)F)cc2Cl)c(N)c1[S+]([O-])C(F)(F)F (stereo not shown) [FIPRONIL]
E (%) ([3]; dose 240 act. ingr./ha): 94.6%

CCOC(=O)CSc1nc(C(C)(C)C)nn1C(=O)N(C)C [TRIAZAMATE]
E (%) ([3]; dose 50 act. ingr./ha): 96.8%

CNC(=O)Oc1cccc2c1OC(C)(C)O2 [BENDIOCARB, reference compound]
LD50 [1]: 100000 ng/fly | LD50 [2]: 100000 ng/fly

CC#CCOC(C)c1ccc(OC)c(OC)c1 (stereo not shown) [Compound 599]
mortality % [4]: 100% | Synergist ratio [5]: > 5 | Synergist ratio ([6]; with AMINOCARB): > 20 | Synergist ratio ([6]; with BENDIOCARB): > 40 | Synergist ratio ([6]; with CARBOFURAN): > 20 | Synergist ratio ([6]; with DIOXACARB): > 40 | Synergist ratio ([6]; with ESBIOL): > 10 | Synergist ratio ([6]; with FENOBUCARB): > 20 | Synergist ratio ([6]; with IMIDACLOPRID): > 5 | Synergist ratio ([6]; with ISOPROCARB): > 40 | Synergist ratio ([6]; with METHOMYL): > 10 | Synergist ratio ([6]; with PERMETHRIN): > 5 | Synergist ratio ([6]; with PIRIMICARB): > 20 | Synergist ratio ([6]; with PROPOXUR): > 40 | Synergist ratio ([6]; with TETRAMETHRIN): > 5 | Synergist ratio ([6]; with THIODICARB): > 10 | Synergist ratio ([7]; with BENDIOCARB): > 20 | Synergist ratio ([7]; with CARBOFURAN): > 20 | Synergist ratio ([7]; with DIOXACARB): > 20 | Synergist ratio ([7]; with ISOPROCARB): > 20 | Synergist ratio ([7]; with PERMETHRIN): > 10 | Synergist ratio ([7]; with PROPOXUR): > 20 | 24 hour mortality (%) ([8]; carbofuran 20 ng/fly + synergist 80 ng/fly): 65% | 24 hour mortality (%) ([8]; carbofuran 20 ng/fly + synergist 200 ng/fly): 90% | 24 hour mortality (%) ([8]; carbofuran 20 ng/fly + synergist 400 ng/fly): 95% | 24 hour mortality (%) ([8]; house fly, in vivo, topical_or_ocular): 100%

CNC(=O)Oc1cccc2c1OC(C)(C)C2 [CARBOFURAN, reference compound]
LD50 [1]: 15375 ng/fly | LD50 [2]: > 100000 ng/fly | mortality at 31 ppm [9]: 13% | mortality at 62 ppm [9]: 39% | mortality at 125 ppm [9]: 44% | mortality at 250 ppm [9]: 81% | mortality at 500 ppm [9]: 90% | LC50 [10]: 164 µg/mL | E (%) ([3]; dose 110 act. ingr./ha): 98.0% | E (%) ([3]; dose 160 act. ingr./ha): 99.1%

CNC(=O)Oc1ccccc1C(C)C [ISOPROCARB, reference compound]
LD50 [1]: > 100000 ng/fly | LD50 [2]: > 100000 ng/fly
